Data from patent US10125116B2, “Compounds and methods for treating mammalian gastrointestinal microbial infections” (Brandeis University, priority 2009, dated 2018).
Like-named read-outs stand apart in the source and are kept apart here.

Assays:
T. gondii-CpIMPDH = T. gondii-CpIMPDH fluorescence growth assay; format: cell-based, Toxoplasma gondii
HCT-8 cells = assay: fluorescent HCT-8 host cell growth assay; format: cell-based, human
From the text: The differentiation of selective antiparasitic effects from those that are a secondary consequence of a host cell effect is a critical issue in drug discovery for intracellular parasites. Cytotoxicity assays commonly reflect plasma membrane integrity, and are a crude measure of host cell effects—it is conceivable that more subtle perturbations of host cell metabolism can have an adverse effect on parasite proliferation. Therefore we sought to develop a simple and inexpensive assay of host cell growth. The human ileocecal adenocarcinoma epithelial cell line, HCT-8, which is commonly used to maintain C. parvum infection in tissue culture, was engineered to constitutively express a green fluorescent protein (GFP). Growth of this cell line was monitored daily using a fluorescent plate reader. […] These experiments validate the use of the fluorescent HCT-8 cell growth assay.
HCT-8 cells were transfected with the pmaxGFP plasmid (Amaxa) using Lipofectamine (Invitrogen) following the manufactures instruction. Fluorescent lines were then selected and cloned using FACS. Confluent monolayers of pmaxGFP expressing cells were harvested from T75 flasks and passed through a 40 μm cell strainer. Cells were then seeded at 4000 cells per well in a volume of 200 μL into black, optical quality, thin bottom, 96-well plates (DB Falcon). All test compounds were diluted in DMSO to prepare a 200× working stock for each dilution. Appropriate wells were spiked with 1 μl such that the final concentration of DMSO was 0.5%. The fluorescence was read daily with a SpectraMax M22/M2e (Molecular Devices) plate reader (Ex 485, Em 530) for 6-7 days. The percent inhibition was calculated on a day within the exponential phase of growth.

[1] = biological target: CpIMPDH, HpIMPDH, BbIMPDH, SpIMPDH, EcIMPDH and TfIMPDH
wild-type T. gondii = wild-type T. gondii fluorescence growth assay; format: cell-based; conditions: Toxoplasma gondii
T. gondii-ΔHXGPRT = T. gondii-ΔHXGPRT fluorescence growth assay; format: cell-based; conditions: Toxoplasma gondii, read-out: EC50 T. gondii-ΔHXGPRT growth
[2] = test system: primary human, mouse, rat, and dog lymphocytes; conditions: cited from earlier work
[3] = read-out: intrinsic Ki (adjusted for competition from the mobile flap), range over IMPDHs

melting point [°C]	Compound	also measured
194 to 196	CC(Oc1ccnc2ccccc12)c1cn(-c2ccc(C#N)c(Cl)c2)nn1 (centres unmarked)	–
176 to 178	C[C@@H](Oc1ccnc2ccccc12)c1cn(-c2ccc(C#N)c(Cl)c2)nn1	–
176 to 178	C[C@H](Oc1ccnc2ccccc12)c1cn(-c2ccc(C#N)c(Cl)c2)nn1	–
–	CC(Oc1ccc(Cl)c2ccccc12)c1cn(-c2ccc(Cl)cc2)nn1 (centres unmarked) [A82]	selectivity for T. gondii-CpIMPDH parasite over wild-type T. gondii (T. gondii-CpIMPDH): little selectivity; host cell (HCT-8) growth effect, in words (HCT-8 cells): do not inhibit host cell growth
–	CC(Oc1ccnc2ccccc12)c1cn(-c2ccc(Cl)c(Cl)c2)nn1 (centres unmarked) [A90]	selectivity for T. gondii-CpIMPDH parasite over wild-type T. gondii (T. gondii-CpIMPDH): little selectivity; host cell (HCT-8) growth effect, in words (HCT-8 cells): do not inhibit host cell growth
–	C[C@@H](Oc1ccnc2ccccc12)c1cn(-c2ccc(Cl)c(Cl)c2)nn1 [A105]	selectivity for T. gondii-CpIMPDH parasite over wild-type T. gondii (T. gondii-CpIMPDH): little selectivity; host cell (HCT-8) growth effect, in words (HCT-8 cells): do not inhibit host cell growth
–	C[C@@H](Oc1cc[n+]([O-])c2ccccc12)c1cn(-c2ccc(Cl)cc2)nn1 [A110]	host cell (HCT-8) growth effect, in words (HCT-8 cells): negligible effects on host cell growth
–	Nc1ncnc2c1ncn2[C@@H]1O[C@H](COP(=O)(O)OP(=O)(O)O)[C@@H](O)[C@H]1O [ADP]	Ki [1, 3]: 200 to 9000 µM
98 to 100	CC(Oc1cccc2ccccc12)c1cn(-c2ccc(Cl)cc2)nn1 (centres unmarked) [Compound 1, 1-(4-chlorophenyl)-4-(1-(naphthalene-1-yloxy)ethyl)-1H-1,2,3-triazole]	–
128 to 130	CC(Oc1ccnc2ccccc12)c1cn(-c2ccc(Cl)cc2)nn1 (centres unmarked) [Compound 13, 4-(1-(1-(4-chlorophenyl)-1H-1,2,3-triazol-4-yl)ethoxy)quinoline]	–
176 to 178	CC(Oc1ccnc2ccccc12)c1cn(-c2ccc(C#N)cc2)nn1 (centres unmarked) [Compound 15, 4-(4-(1-(quinolin-4-yloxy)ethyl)-1H-1,2,3-triazol-1-yl)benzonitrile]	–
230 to 232	Clc1ccc(-n2cc(COc3ccnc4ccccc34)nn2)cc1 [Compound 17, 4-((1-(4-chlorophenyl)-1H-1,2,3-triazol-4-yl)methoxy)quinoline]	–
94 to 96	C[C@@H](Oc1cccc2ncccc12)c1cn(-c2ccc(Cl)cc2)nn1 [Compound 21, (R)-5-(1-(1-(4-chlorophenyl)-1H-1,2,3-triazol-4-yl)ethoxy)quinoline]	–
165 to 167	CC(Oc1cccc2c1ccc[n+]2[O-])c1cn(-c2ccc(Cl)cc2)nn1 (centres unmarked) [Compound 25, 5-(1-(1-(4-chlorophenyl)-1H-1,2,3-triazol-4-yl)ethoxy)quinoline 1-oxide]	–
216 to 218	CC(Oc1cc[n+]([O-])c2ccccc12)c1cn(-c2ccc(Cl)c(Cl)c2)nn1 (centres unmarked) [Compound 26, 4-(1-(1-(3,4-dichlorophenyl)-1H-1,2,3-triazol-4-yl)ethoxy)quinoline 1-oxide]	–
64 to 66	C[C@H](Oc1ccnc2ccccc12)c1cn(-c2ccc(Cl)c(Cl)c2)nn1 [Compound 30, (S)-4-(1-(1-(3,4-dichlorophenyl)-1H-1,2,3-triazol-4-yl)ethoxy)quinoline]	–
184 to 186	C[C@@H](Oc1cccc2c1ccc[n+]2[O-])c1cn(-c2ccc(Cl)cc2)nn1 [Compound 32, (R)-5-(1-(1-(4-chlorophenyl)-1H-1,2,3-triazol-4-yl)ethoxy)quinoline 1-oxide]	–
146 to 148	CC(Oc1cccc2ccccc12)C(=O)Nc1ccc(Cl)cc1 (centres unmarked) [Compound 93, N-(4-chlorophenyl)-2-(1-naphthalenyloxy)propanamide]	–
170 to 172	CC(Oc1ccnc2ccccc12)C(=O)Nc1ccc(Cl)cc1 (centres unmarked) [Compound 114, N-(4-chlorophenyl)-2-[[4-quinolinyl]oxy]propanamide]	–
150 to 152	CC(C)C(Oc1cccc2ccccc12)C(=O)Nc1ccc(Cl)cc1 (centres unmarked) [Compound 116, N-(4-chlorophenyl)-3-methyl-2-(1-naphthalenyloxy)butanamide]	–
204 to 206	O=C(Nc1ccc(Cl)cc1)C(Oc1cccc2ccccc12)C1CC1 (centres unmarked) [Compound 119, N-(4-chlorophenyl)-2-cyclopropyl-2-(1-naphthalenyloxy)acetamide]	–
–	COc1c(C)c2c(c(O)c1C/C=C(\C)CCC(=O)O)C(=O)OC2 [MPA, mycophenolic acid]	EC50 (T. gondii-CpIMPDH; Toxoplasma gondii, read-out: EC50 T. gondii-CpIMPDH growth): > 65 µM; EC50 (wild-type T. gondii; media with xanthine (0.33 mM), read-out: EC50 wild-type T. gondii growth, xanthine supplemented): ≥ 78 µM; EC50 (wild-type T. gondii; read-out: EC50 wild-type T. gondii growth): 2.6 µM; EC50 (T. gondii-ΔHXGPRT): 0.29 µM
–	CCCC(=O)[O-].[Na+] [Sodium butyrate, reference compound]	host cell (HCT-8) growth effect, in words (HCT-8 cells; human): inhibit HCT-8 growth in a dose-dependent manner
–	NC(=O)c1csc([C@@H]2O[C@H](CO)[C@@H](O)[C@H]2O)n1 [Tiazofurin, tiazofurin]	Ki ([1]; read-out: Ki (observed), range over prokaryotic IMPDHs): 1000 to 69000 µM; Ki [1, 3]: 300 to 700 µM
–	COc1cc(NC(=O)Nc2cccc(CNC(=O)O[C@H]3CCOC3)c2)ccc1-c1cnco1 [merimepodib]	concentration inhibiting lymphocyte proliferation [2]: ~100 nM

Compound	melting point [°C]	also measured
CC(Oc1ccnc2ccccc12)c1cn(-c2ccc(Cl)c(Cl)c2)nn1 (centres unmarked) [Compound 14, 4-(1-(1-(3,4-dichlorophenyl)-1H-1,2,3-triazol-4-yl)ethoxy)quinoline]	62 to 64	–
C[C@@H](Oc1ccnc2ccccc12)c1cn(-c2ccc(Cl)c(Cl)c2)nn1 [Compound 28, (R)-4-(1-(1-(3,4-dichlorophenyl)-1H-1,2,3-triazol-4-yl)ethoxy)quinoline]	62 to 64	–
O=C(Nc1ccc(Cl)cc1)C(Oc1cccc2ccccc12)c1ccccc1 (stereo not drawn) [Compound 102, N-(4-chlorophenyl)-α-(1-naphthalenyloxy)benzeneacetamide]	176 to 178	–
